Reference: ChEMBL document CHEMBL3046612, “Design, multicomponent synthesis, and bioactivities of novel neonicotinoid analogues with 1,4-dihydropyridine scaffold” (2010)

Experiments:
Aphis craccivora [1] = experiment: Insecticidal activity against Aphis craccivora (cowpea aphid) in tender shoots of soybean assessed as mortality at 500 mg/L measured after 1 days (reference value: 4.3%); format: functional; settings: 24 h
Aphis craccivora [2] = experiment: Insecticidal activity against Aphis craccivora (cowpea aphid) in tender shoots of soybean assessed as mortality measured after 1 days; format: functional; settings: 24 h

Molecule `N#CC1=C(N)N2CCN(Cc3ccc(Cl)nc3)C2=C([N+](=O)[O-])C1c1ccccc1` (stereo unspecified) has a mortality at 500 µg/mL (Aphis craccivora [1]) of 83.1%.
`Cc1c(F)cccc1C1C(C#N)=C(N)N2CCN(Cc3ccc(Cl)nc3)C2=C1[N+](=O)[O-]` (stereo unspecified) gave an LC50 (Aphis craccivora [2]) of 3.45 µM and a mortality at 500 µg/mL (Aphis craccivora [1]) of 100%.
With `COc1ccc(C2C(C#N)=C(N)N3CCN(Cc4ccc(Cl)nc4)C3=C2[N+](=O)[O-])cc1` (stereo unspecified) the LC50 (Aphis craccivora [2]) was 9.75 µM and the mortality at 500 µg/mL (Aphis craccivora [1]) was 100%.
`N#CC1=C(N)N2CCN(Cc3ccc(Cl)nc3)C2=C([N+](=O)[O-])C1c1ccc(Cl)cc1C(F)(F)F` (stereo unspecified) was tested, and the LC50 (Aphis craccivora [2]) was 61.6 µM and the mortality at 500 µg/mL (Aphis craccivora [1]) was 100%.
With `Cc1ccc(F)cc1C1C(C#N)=C(N)N2CCN(Cc3ccc(Cl)nc3)C2=C1[N+](=O)[O-]` (stereo unspecified) the LC50 (Aphis craccivora [2]) was 96.1 µM and the mortality at 500 µg/mL (Aphis craccivora [1]) was 100%.
For `Cc1cc(C2C(C#N)=C(N)N3CCN(Cc4ccc(Cl)nc4)C3=C2[N+](=O)[O-])c(Br)cc1F` (stereo unspecified), the mortality at 500 µg/mL (Aphis craccivora [1]) was 75.9%.
`Cc1ccc(C2C(C#N)=C(N)N3CCN(Cc4ccc(Cl)nc4)C3=C2[N+](=O)[O-])c(F)c1` (stereo unspecified) showed a mortality at 500 µg/mL (Aphis craccivora [1]) of 72.9%.
For `N#CC1=C(N)N2CCN(Cc3ccc(Cl)nc3)C2=C([N+](=O)[O-])C1c1ccc(Br)cc1Cl` (stereo unspecified), the mortality at 500 µg/mL (Aphis craccivora [1]) was 85%.
`N#CC1=C(N)N2CCN(Cc3ccc(Cl)nc3)C2=C([N+](=O)[O-])C1c1ccc(Cl)cc1F` (stereo unspecified) was tested, and the mortality at 500 µg/mL (Aphis craccivora [1]) was 88%.
`N#CC1=C(N)N2CCN(Cc3ccc(Cl)nc3)C2=C([N+](=O)[O-])C1c1ccc(Cl)cc1Cl` (stereo unspecified) was tested, and the LC50 (Aphis craccivora [2]) was 133 µM and the mortality at 500 µg/mL (Aphis craccivora [1]) was 93.4%.
`N#CC1=C(N)N2CCN(Cc3ccc(Cl)nc3)C2=C([N+](=O)[O-])C1c1cccc(Br)c1` (stereo unspecified) gave an LC50 (Aphis craccivora [2]) of 197 µM and a mortality at 500 µg/mL (Aphis craccivora [1]) of 91.8%.
Work on `N#CC1=C(N)N2CCN(Cc3ccc(Cl)nc3)C2=C([N+](=O)[O-])C1c1ccc(OC(F)(F)F)cc1` (stereo unspecified) yielded an LC50 (Aphis craccivora [2]) of 98 µM and a mortality at 500 µg/mL (Aphis craccivora [1]) of 100%.
Molecule `N#CC1=C(N)N2CCN(Cc3ccc(Cl)nc3)C2=C([N+](=O)[O-])C1c1cccc(C#N)c1` (stereo unspecified) has a mortality at 500 µg/mL (Aphis craccivora [1]) of 80%.
For `N#CC1=C(N)N2CCN(Cc3ccc(Cl)nc3)C2=C([N+](=O)[O-])C1c1ccc(C#N)cc1` (stereo unspecified), the LC50 (Aphis craccivora [2]) was 175 µM and the mortality at 500 µg/mL (Aphis craccivora [1]) was 93.7%.
For `N#CC1=C(N)N2CCN(Cc3ccc(Cl)nc3)C2=C([N+](=O)[O-])C1c1cccc([N+](=O)[O-])c1` (stereo unspecified), the LC50 (Aphis craccivora [2]) was 79 µM and the mortality at 500 µg/mL (Aphis craccivora [1]) was 91.9%.
With `N#CC1=C(N)N2CCN(Cc3ccc(Cl)nc3)C2=C([N+](=O)[O-])C1c1ccc([N+](=O)[O-])cc1` (stereo unspecified) the mortality at 500 µg/mL (Aphis craccivora [1]) was 77%.
In the case of `O=[N+]([O-])/N=C1\NCCN1Cc1ccc(Cl)nc1` [IMIDACLOPRID], the mortality at 500 µg/mL (Aphis craccivora [1]) is reported as 100%.
